Results on 35 compounds are retold here after patent US20100234372A1, “SUBSTITUTED 2-MERCAPTOQUINOLINE-3-CARBOXAMIDES AS KCNQ2/3 MODULATORS” (GRUNENTHAL GMBH, priority 2009, published 2010).

The structures appear in SMILES notation.

One test deals with T1, KCNQ2/3 channels (Homo sapiens, UniProt O43525+O43526).
T1 construct: expressed in transfected cells; host or cells: CHO-K1 cells
As to the kind of experiment: Fluorescence assay using a voltage-sensitive dye (fluorimetry). The class given is cell-based. As to conditions: for EC50: CHO-K1 cells expressing KCNQ2/3 channels; for Emax at 1 µM: 50 μM retigabine = 100%, CHO-K1 cells expressing KCNQ2/3, read-out: Fluorimetry % efficacy at 1 μM (50 μM retigabine = 100%). As to the method: […] CHO-K1 cells expressing KCNQ2/3 channels are cultivated adherently at 37° C., 5% CO2 and 95% humidity in cell culture bottles (e.g. 80 cm^2 TC flasks, Nunc) with DMEM-high glucose (Sigma Aldrich, D7777) including 10% FCS (PAN Biotech, e.g. 3302-P270521) or alternatively MEM Alpha Medium (1×, liquid, Invitrogen, #22571), 10% foetal calf serum (FCS) (Invitrogen, #10270-106, heat-inactivated) and the necessary selection antibiotics.
Before being seeded out for the measurements, the cells are washed with a 1×DPBS buffer without Ca^2+/Mg^2+ (e.g. Invitrogen, #14190-094) and detached from the bottom of the culture vessel by means of Accutase (PAA Laboratories, #L11-007) (incubation with Accutase for 15 min at 37° C.). The cell count then present is determined using a CASY™ cell counter (TCC model, Scharfe System) in order subsequently to apply 20,000 to 30,000 cells/well/100 μl of the described nutrient medium, depending on density optimisation for the individual cell line, to 96-well measuring plates of the Corning™ CeIIBIND™ type (flat clear-bottom black polystyrene microplates, #3340). Incubation is then carried out for one hour at room temperature, without gassing or adjusting the humidity, followed by incubation for 24 hours at 37° C., 5% CO2 and 95% humidity.
The voltage-sensitive fluorescent dye from the Membrane Potential Assay Kit (Red™ bulk format part R8123 for FLIPR, MDS Analytical Technologies™) is prepared by dissolving the contents of a vessel of Membrane Potential Assay Kit Red Component A in 200 ml of extracellular buffer (ES buffer, 120 mM NaCl, 1 mM KCl, 10 mM HEPES, 2 mM CaCl2, 2 mM MgCl2, 10 mM glucose; pH 7.4). After removal of the nutrient medium, the cells are washed with 200 μl of ES buffer, then covered with a layer of 100 μl of the dye solution prepared above and incubated for 45 min at room temperature with exclusion of light.
The fluorescence measurements are carried out with a BMG Labtech FLUOstar™, BMG Labtech NOVOstar™ or BMG Labtech POLARstar™ instrument (525 nm excitation, 560 nm emission, bottom-read mode). After incubation of the dye, 50 μl of the substances to be tested in the desired concentrations, or 50 μl of ES buffer for control purposes, are introduced into separate cavities of the measuring plate and incubated for 30 min at room temperature whilst being shielded from light. The fluorescence intensity of the dye is then measured for 5 min and the fluorescence value F1 of each well is thus determined at a given, constant time. 15 μl of a […] KCl solution ([…]) are then added to each well. The change in fluorescence is subsequently measured until all relevant measured values have been obtained (mainly 5-30 min). At a given time after KCl application, a fluorescence value F2 is determined, in this case at the time of the fluorescence peak.
For calculation, the fluorescence intensity F2 is compared with the fluorescence intensity F1, and the agonistic activity of the target compound on the potassium channel is determined therefrom. F2 and F1 are calculated as follows: […]
is determined by adding to the reaction batch only the buffer solution instead of the substance to be tested, determining the value F1K of the fluorescence intensity, adding the potassium ions as described above and measuring a value F2K of the fluorescence intensity. Then F2K and F1K are calculated as follows: […]
Calculations of EC50 values are carried out with the aid of Prism v4.0 software (GraphPad Software™).

For the next test, the system named is Male Sprague-Dawley rats. As to the kind of experiment: Low-intensity tail flick in rats. The class given is in vivo. To be noted: po, rat; for inhibition in vivo at 10 mg/kg: p.o., MPE, read-out: Low-intensity tail flick rat p.o. % effect (dose [mg/kg]). An excerpt: The antinociceptive activity of the test substance against an acute noxic thermal stimulant was examined in the tail-flick test in rats using the method described by D′Amour and Smith (J. Pharm. Exp. Ther. 72, 74 79 (1941)). Male Sprague-Dawley rats weighing between 200 and 250 g were used (breeder: Janvier, Le Genest St. Isle, France). The animals were placed in special test compartments and the base of the tail was exposed to a focused light beam from an analgesia meter (model 2011, Rhema Labortechnik, Hofheim, Germany). 10 animals were used per group. Before administering a substance according to the invention, the tail-flick latency (time from switching on the light beam to the flick of the tail) was measured twice at an interval of five minutes and the average was defined as the control latency time. The intensity of the light beam was chosen so that the control latency time was 7 to 9 seconds.
The measurement of the tail-flick latency was then repeated 10, 20, 30 and 60 minutes after peroral administration of the substance. The antinociceptive action of the test substance was determined as the increase in the tail-flick latency time using the following formula:
where T0=control latency time before administration of the substance, T1=latency time after administration of the substance, T2=maximum exposure time to the light beam (30 seconds), MPE=maximum possible effect.
Analysis of variance (repeated measures ANOVA) was used to test for statistically significant differences between the substance and vehicle group. The significance level was set at ≦0.05.

The EC50 is the concentration that produces a half-maximal response. Lower therefore signals greater potency. Take `CCSc1nc2cc(C(F)(F)F)ccc2c(C)c1C(=O)NCCC(C)C` [compound 37]: on KCNQ2/3 channels, the half-maximal effective concentration (EC50) is 85 nM and the Emax at 1 µM was 121%. For the same compound, the inhibition in vivo at 10 mg/kg in the test with Male Sprague-Dawley rats was 0%.

`CCSc1nc2cc(C(F)(F)F)ccc2c(C)c1C(=O)NCc1cccs1` [compound 30, 2-Ethylsulfanyl-4-methyl-N-(thiophen-2-yl-methyl)-7-(trifluoromethyl)-quinoline-3-carboxamide]: on KCNQ2/3 channels, the response was half-maximal at 82 nM (EC50) and the Emax at 1 µM came out at 141%. For the same compound, the inhibition in vivo at 10 mg/kg in the test on Male Sprague-Dawley rats stood at 31%.

In general, ED50 refers to the dose at which the effect has come halfway, by size or by number of responders. Lower therefore signals greater potency. As to `CCSc1nc2cc(C(F)(F)F)ccc2c(C)c1C(=O)NCc1cccc(F)c1` [compound 76], at KCNQ2/3 channels, the EC50 was 92 nM and the Emax at 1 µM turned out to be 182%. The ED50 with Male Sprague-Dawley rats amounted to 6.3 mg/kg.

As to `CCSc1nc2cc(C(F)(F)F)ccc2c(C)c1C(=O)NCc1ccccc1O` [compound 112, 2-Ethylsulfanyl-N-[(2-hydroxyphenyl)-methyl]-4-methyl-7-(trifluoromethyl)-quinoline-3-carboxamide], at KCNQ2/3 channels, the EC50 turned out to be 130 nM and the Emax at 1 µM was 211%. In the test with Male Sprague-Dawley rats, the inhibition in vivo at 10 mg/kg came to 17%.

With `CCSc1nc2cc(C(F)(F)F)ccc2c(C)c1C(=O)NCc1cccc(C(C)(C)C)c1` [compound 56], on KCNQ2/3 channels, a half-maximal effect (EC50) was put at 67 nM and the Emax at 1 µM worked out at 97%.

Regarding `CCCCCSc1nc2cc(C(F)(F)F)ccc2c(C)c1C(=O)NCc1cccc(F)c1` [compound 50], on KCNQ2/3 channels, the concentration giving a half-maximal response (EC50) was 61 nM and the Emax at 1 µM came out at 150%.

On to `O=C(NCc1cccs1)c1cc2cc(C(F)(F)F)ccc2nc1SCCS(=O)(=O)c1ccccc1` [compound 8, 2-[2-(Phenylsulfonyl)ethylthio]-N-(2-thienyl-methyl)-6-(trifluoromethyl)-3-quinoline carboxamide], for which, at KCNQ2/3 channels, the Emax at 1 µM worked out at 46%.

As for `CCSc1nc2cc(F)ccc2c(C)c1C(=O)NCc1ccc(F)cc1` [compound 106], on KCNQ2/3 channels, the midpoint of the response, the EC50, lay at 216 nM and the Emax at 1 µM came out at 143%.

Turning to `O=C(NCC1CCCCC1)c1cc2ccccc2nc1SCCS(=O)(=O)c1ccccc1` [compound 19], at KCNQ2/3 channels, the 50% effective concentration (EC50) is 167 nM and the Emax at 1 µM stood at 71%.

Regarding `CCSc1nc2cccc(O)c2c(C)c1C(=O)NCc1cccc(F)c1` [compound 127], at KCNQ2/3 channels, the Emax at 1 µM was found to be 18%.

For the compound `CCC(C)Sc1nc2cc(C(F)(F)F)ccc2c(C)c1C(=O)NCc1cccc(F)c1` (centres unmarked) [compound 51], at KCNQ2/3 channels, the EC50 was 37 nM and the Emax at 1 µM was determined as 158%.

On to `CCSc1nc2cc(N3CCOCC3)ccc2c(C)c1C(=O)NCc1ccc(F)cc1` [compound 135], for which the Emax at 1 µM at KCNQ2/3 channels turned out to be 6%.

Take `O=C(NCc1cccs1)c1cc2ccccc2nc1SCCCc1ccccc1` [compound 4]: at KCNQ2/3 channels, it took 144 nM to reach a half-maximal effect (EC50) and the Emax at 1 µM stood at 168%.

In the case of `CCSc1nc2cc(OC)ccc2c(C)c1C(=O)NCc1cccc(F)c1` [compound 97], on KCNQ2/3 channels, the response was half-maximal at 622 nM (EC50) and the Emax at 1 µM came to 60%.

As for `CCSc1nc2ccccc2c(C)c1C(=O)NCc1cccs1` [compound 91], on KCNQ2/3 channels, the EC50 amounted to 1210 nM and the Emax at 1 µM was 50%.

As for `O=C(NCc1cccs1)c1cc2ccccc2nc1SCCSc1ccccc1` [compound 21], on KCNQ2/3 channels, the concentration for a half-maximal effect (EC50) was found to be 119 nM and the Emax at 1 µM is 30%.

`CCSc1nc2c(F)cccc2c(C)c1C(=O)NCc1cccc(F)c1` [compound 120]: at KCNQ2/3 channels, a half-maximal effect (EC50) was put at 1210 nM and the Emax at 1 µM was found to be 157%.

`CCSc1nc2cc(C(F)(F)F)ccc2c(C)c1C(=O)NCc1cc(F)c(F)c(F)c1` [compound 33]: on KCNQ2/3 channels, the EC50 worked out at 140 nM and the Emax at 1 µM was 162%.

In the case of `O=C(NCCC1CCCCC1)c1cc2ccccc2nc1SCCS(=O)(=O)c1ccccc1` [compound 22], the Emax at 1 µM at KCNQ2/3 channels was found to be 15%.

With `CCSc1nc2cc(C(F)(F)F)ccc2c(C)c1C(=O)NCc1ccc(Cl)s1` [compound 71], at KCNQ2/3 channels, the EC50 turned out to be 305 nM and the Emax at 1 µM turned out to be 163%.

In the case of `CCSc1nc2cccc(OC)c2c(C)c1C(=O)NCc1ccc(F)cc1` [compound 126], on KCNQ2/3 channels, the Emax at 1 µM came to 5%.

Consider `CCSc1nc2cc(C(F)(F)F)ccc2c(C)c1C(=O)NCc1ccc(C)o1` [compound 111], for which, on KCNQ2/3 channels, the EC50 turned out to be 86 nM and the Emax at 1 µM was 178%.

`CCSc1nc2cc(C(F)(F)F)ccc2c(C)c1C(=O)NCc1cccc(O)c1` [compound 113]: at KCNQ2/3 channels, a half-maximal effect (EC50) was put at 3990 nM and the Emax at 1 µM turned out to be 66%.

With `CCSc1nc2c(C(F)(F)F)cccc2c(C)c1C(=O)NCc1ccc(F)cc1` [compound 137], on KCNQ2/3 channels, a half-maximal response (EC50) required 225 nM and the Emax at 1 µM turned out to be 166%.

As to `Cc1ccc(SCCSc2nc3ccccc3cc2C(=O)NCc2cccs2)cc1` [compound 18], the Emax at 1 µM on KCNQ2/3 channels is 72%.

In the case of `CCSc1nc2cc(C(F)(F)F)ccc2c(C)c1C(=O)NCc1ccccn1` [compound 41], on KCNQ2/3 channels, a half-maximal effect (EC50) was put at 1100 nM and the Emax at 1 µM was 121%.

As for `CCSc1nc2ccc(C)cc2c(C)c1C(=O)NCc1cccc(F)c1` [compound 99], at KCNQ2/3 channels, the EC50 turned out to be 623 nM and the Emax at 1 µM turned out to be 90%.

`CCSc1nc2ccc(O)cc2c(C)c1C(=O)NCc1cccc(F)c1` [compound 128]: at KCNQ2/3 channels, the Emax at 1 µM turned out to be 39%.

As to `CCSc1nc2cc(C(F)(F)F)ccc2c(C)c1C(=O)NCc1ccncc1` [compound 35], at KCNQ2/3 channels, the EC50 was 2650 nM and the Emax at 1 µM is 142%.

`CCSc1nc2cc(C(F)(F)F)ccc2c(OC)c1C(=O)NCc1cccc(F)c1` [compound 130, 2-Ethylsulfanyl-N-[(3-fluorophenyl)-methyl]-4-methoxy-7-(trifluoromethyl)-quinoline-3-carboxamide]: on KCNQ2/3 channels, the EC50 stood at 58 nM and the Emax at 1 µM came out at 180%.

Consider `CCSc1nc2cc(C(F)(F)F)ccc2c(C)c1C(=O)NCc1ccc(O)cc1` [compound 119], for which, on KCNQ2/3 channels, the EC50 amounted to 2750 nM and the Emax at 1 µM came out at 72%.

On to `CC(C)(C)CCNC(=O)c1cc2ccccc2nc1SCCS(=O)(=O)c1ccccc1` [compound 23], for which, on KCNQ2/3 channels, the Emax at 1 µM was 14%.

Consider `CCSc1nc2ccc(C(F)(F)F)cc2cc1C(=O)NCc1cccs1` [compound 12], for which, at KCNQ2/3 channels, the EC50 stood at 412 nM and the Emax at 1 µM was 155%.

`CCSc1nc2cc(C(F)(F)F)ccc2c(C)c1C(=O)NCCc1ccccc1` [compound 39]: on KCNQ2/3 channels, the concentration for a half-maximal effect (EC50) amounted to 473 nM and the Emax at 1 µM is 48%.

Regarding `CCSc1nc2cc(C(F)(F)F)ccc2c(C)c1C(=O)NCc1nnco1` [compound 45], the Emax at 1 µM at KCNQ2/3 channels was determined as 23%.
